How the values were obtained:
Type in all cases: in vivo
[1] = test system: ragweed (common ragweed, Ambrosia artemisiifolia); assay: Test C postemergence, visual plant response rating
In short: (§1)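 Seeds sown in a loam–sand blend got a directed preemergence soil spray; postemergence plants (2–10 cm, one- to two-leaf stage) were sprayed with compound in a non-phytotoxic solvent plus surfactant. Injury was scored visually against untreated controls after about 10 d in a greenhouse on a 0–100 scale (100 = complete control).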

[2] = test system: kochia (Bassia scoparia); assay: Test C postemergence, visual plant response rating
In short: as §1

[3] = test system: pigweed (Amaranthus retroflexus); assay: Test C postemergence, visual plant response rating
In short: as §1

[4] = test system: wheat (Triticum aestivum); assay: Test C postemergence, visual plant response rating
In short: as §1

[5] = test system: blackgrass (Alopecurus myosuroides); assay: Test C postemergence, visual plant response rating
In short: as §1

[6] = test system: barnyardgrass (Echinochloa crus-galli); assay: Test C postemergence, visual plant response rating
In short: as §1

[7] = test system: foxtail, giant (giant foxtail, Setaria faberi); assay: Test C postemergence, visual plant response rating
In short: as §1

[8] = test system: corn (Zea mays); assay: Test C postemergence, visual plant response rating
In short: as §1

[9] = test system: galium (catchweed bedstraw, Galium aparine); assay: Test C postemergence, visual plant response rating
In short: as §1

[10] = test system: Italian ryegrass (Lolium mutiflorum); assay: Test C postemergence, visual plant response rating
In short: as §1

[11] = test system: barnyardgrass (Echinochloa crus-galli); assay: Test D flooded paddy test, visual plant response rating; details: 250 g ai/ha, scale 0 to 100 (0 no effect, 100 complete control), 13 to 15 d
In short: (§2)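 Greenhouse paddy assay scored on a 0–100 visual scale after 13 to 15 d, where 100 means complete control and a dash marks no result; dosing was into 3 cm floodwater over 2-leaf plants.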

[12] = test system: duck salad (Heteranthera limosa); assay: as above; details: 250 g ai/ha, scale 0 to 100 (0 no effect, 100 complete control), 13 to 15 d
In short: as §2

[13] = test system: rice (Oryza sativa); assay: as above; details: 250 g ai/ha, scale 0 to 100 (0 no effect, 100 complete control), 13 to 15 d
In short: as §2

[14] = test system: sedge umbrella (small-flower umbrella sedge, Cyperus difformis); assay: as above; details: 250 g ai/ha, scale 0 to 100 (0 no effect, 100 complete control), 13 to 15 d
In short: as §2

[15] = test system: ragweed (common ragweed, Ambrosia artemisiifolia); assay: Test C preemergence, visual plant response rating
In short: as §1

[16] = test system: kochia (Bassia scoparia); assay: Test C preemergence, visual plant response rating
In short: as §1

[17] = test system: pigweed (Amaranthus retroflexus); assay: Test C preemergence, visual plant response rating
In short: as §1

[18] = test system: barnyardgrass (Echinochloa crus-galli); assay: Test C preemergence, visual plant response rating
In short: as §1

[19] = test system: foxtail, giant (giant foxtail, Setaria faberi); assay: Test C preemergence, visual plant response rating
In short: as §1

[20] = test system: Italian ryegrass (Lolium mutiflorum); assay: Test C preemergence, visual plant response rating
In short: as §1

[21] = Test C, postemergence, 125 g ai/ha
[22] = Test C, 31 g ai/ha, 0 is no effect, 100 is complete control

With `C#CCO/N=C(\c1c(O)c(C)nn(C)c1=O)c1cc(Cl)cc2ccccc12` [Compound 191] the “Ragweed plant response rating (0 to 100 scale)” value (“Ragweed plant response rating” below) ([1]; Postemergence, 31 g ai/ha) was 70, the “Ragweed plant response rating” value [1, 21] was 80 and the “Kochia plant response rating (0 to 100 scale)” value (“Kochia plant response rating” for short) ([2]; Postemergence, 31 g ai/ha) was 50. The “Kochia plant response rating” value [2, 21] was 80, the “Pigweed plant response rating (0 to 100 scale)” value (“Pigweed plant response rating” for short) ([3]; Postemergence, 31 g ai/ha) was 90 and the “Pigweed plant response rating” value [3, 21] was 100. The “Wheat plant response rating (0 to 100 scale)” value (from here on “Wheat plant response rating”) ([4]; Postemergence, 31 g ai/ha) was 0, the “Wheat plant response rating” value [4, 21] was 70 and the “Blackgrass plant response rating (0 to 100 scale)” value (“Blackgrass plant response rating” below) ([5]; Postemergence, 31 g ai/ha) was 80. For the same molecule, the “Blackgrass plant response rating” value [5, 21] was 70, the “Barnyardgrass plant response rating (0 to 100 scale)” value (“Barnyardgrass plant response rating” below) ([6]; Postemergence, 31 g ai/ha) was 80 and the “Barnyardgrass plant response rating” value [6, 21] was 90. The “Foxtail, Giant plant response rating (0 to 100 scale)” value (shortened to “Foxtail, Giant plant response rating”) ([7]; Postemergence, 31 g ai/ha) was 70, the “Foxtail, Giant plant response rating” value [7, 21] was 80 and the “Corn plant response rating (0 to 100 scale)” value (from here on “Corn plant response rating”) ([8]; Postemergence, 31 g ai/ha) was 10. For the same molecule, the “Corn plant response rating” value [8, 21] was 60, the “Galium plant response rating (0 to 100 scale)” value (shortened to “Galium plant response rating”) ([9]; Postemergence, 31 g ai/ha) was 70 and the “Galium plant response rating” value [9, 21] was 100. For the same molecule, the “Ryegrass, Italian plant response rating (0 to 100 scale)” value (from here on “Ryegrass, Italian plant response rating”) ([10]; Postemergence, 31 g ai/ha) was 0, the “Ryegrass, Italian plant response rating” value [10, 21] was 80 and the “Plant response rating, Barnyardgrass (Flood)” value [11] was 70. For the same molecule, the “Plant response rating, Ducksalad (Flood)” value [12] was 75, the “Plant response rating, Rice (Flood)” value [13] was 60 and the “Plant response rating, Sedge, Umbrella (Flood)” value [14] was 80. The “Ragweed plant response rating” value ([15]; 125 g ai/ha) was 80, the “Ragweed plant response rating” value [15, 22] was 50 and the “Kochia plant response rating” value ([16]; 125 g ai/ha) was 60. The “Kochia plant response rating” value [16, 22] was 10, the “Pigweed plant response rating” value ([17]; 125 g ai/ha) was 100 and the “Pigweed plant response rating” value [17, 22] was 80. For the same molecule, the “Barnyardgrass plant response rating” value ([18]; 125 g ai/ha) was 90, the “Barnyardgrass plant response rating” value [18, 22] was 30 and the “Foxtail, Giant plant response rating” value ([19]; 125 g ai/ha) was 90. For the same molecule, the “Foxtail, Giant plant response rating” value [19, 22] was 70, the “Ryegrass, Italian plant response rating” value ([20]; 125 g ai/ha) was 80 and the “Ryegrass, Italian plant response rating” value [20, 22] was 30.
With `CO/N=C(/c1cc(C)cc(Cl)c1)c1c(O)c(C)nn(C)c1=O` [Compound 173] the “Ragweed plant response rating” value ([1]; Postemergence, 31 g ai/ha) was 80, the “Ragweed plant response rating” value [1, 21] was 100 and the “Kochia plant response rating” value ([2]; Postemergence, 31 g ai/ha) was 60. The “Kochia plant response rating” value [2, 21] was 90, the “Pigweed plant response rating” value ([3]; Postemergence, 31 g ai/ha) was 70 and the “Pigweed plant response rating” value [3, 21] was 90. The “Wheat plant response rating” value ([4]; Postemergence, 31 g ai/ha) was 0, the “Wheat plant response rating” value [4, 21] was 0 and the “Blackgrass plant response rating” value ([5]; Postemergence, 31 g ai/ha) was 20. For the same molecule, the “Blackgrass plant response rating” value [5, 21] was 40, the “Barnyardgrass plant response rating” value ([6]; Postemergence, 31 g ai/ha) was 50 and the “Barnyardgrass plant response rating” value [6, 21] was 80. The “Foxtail, Giant plant response rating” value ([7]; Postemergence, 31 g ai/ha) was 30, the “Foxtail, Giant plant response rating” value [7, 21] was 80 and the “Corn plant response rating” value ([8]; Postemergence, 31 g ai/ha) was 0. The “Corn plant response rating” value [8, 21] was 20, the “Galium plant response rating” value ([9]; Postemergence, 31 g ai/ha) was 90 and the “Galium plant response rating” value [9, 21] was 100. For the same molecule, the “Ryegrass, Italian plant response rating” value ([10]; Postemergence, 31 g ai/ha) was 80, the “Ryegrass, Italian plant response rating” value [10, 21] was 100 and the “Plant response rating, Barnyardgrass (Flood)” value [11] was 0. For the same molecule, the “Plant response rating, Ducksalad (Flood)” value [12] was 0, the “Plant response rating, Rice (Flood)” value [13] was 0 and the “Plant response rating, Sedge, Umbrella (Flood)” value [14] was 0. The “Ragweed plant response rating” value ([15]; 125 g ai/ha) was 90, the “Ragweed plant response rating” value [15, 22] was 30 and the “Kochia plant response rating” value ([16]; 125 g ai/ha) was 80. For the same molecule, the “Kochia plant response rating” value [16, 22] was 60, the “Pigweed plant response rating” value ([17]; 125 g ai/ha) was 30 and the “Pigweed plant response rating” value [17, 22] was 30. The “Barnyardgrass plant response rating” value ([18]; 125 g ai/ha) was 50, the “Barnyardgrass plant response rating” value [18, 22] was 60 and the “Foxtail, Giant plant response rating” value ([19]; 125 g ai/ha) was 90. For the same molecule, the “Foxtail, Giant plant response rating” value [19, 22] was 40, the “Ryegrass, Italian plant response rating” value ([20]; 125 g ai/ha) was 100 and the “Ryegrass, Italian plant response rating” value [20, 22] was 30.
